Measured values from US7927794B2, “Methods for identifying a biosynthetic pathway gene product” (priority 2003, dated 2011).

Key:
E. coli strain DYM1 = experiment: Complementation of isoprenoid-deficient ispC mutant E. coli strain DYM1 on supplemented plates; format: cell-based, Escherichia coli
Source text: (§1) Campos (2001) Biochem. J. 353:59-67.
To increase the intracellular concentration of FPP substrate supplied to the amorphadiene synthase, the genes encoding the mevalonate-dependent isoprenoid pathway from S. cerevisiae were assembled into operons and expressed in E. coli. To simplify the task of engineering an eight-gene biosynthetic pathway, we divided the genes into two operons, referred to as the “top” and “bottom”. The top operon, MevT, transforms the ubiquitous precursor acetyl-CoA to (R)-mevalonate in three enzymatic steps (FIG. 13). The bottom operon converts the (R)-mevalonate to IPP, DMAPP and/or FPP depending on the construct (FIG. 13). To test the functionality of the heterologous pathway, an E. coli strain deficient in isoprenoid synthesis (strain DYM1) was transformed with plasmids expressing the three different bottom operon constructs pMevB, pMBI and pMBIS (FIG. 13). Strain DYM1 has a deletion in the ispC gene, which encodes 1-deoxy-D-xylulose-5-phosphate reductoisomerase (Kuzuyama et al. (1999) supra) and therefore, cannot synthesize 2-C-methyl-D-erythritol 4-phosphate, an intermediate in the endogenous isoprenoid biosynthetic pathway (FIG. 3). As expected, all strains grew in the presence of 2-C-methyl-D-erythritol (ME), but only the strains harboring pMBI or pMBIS and not pMevB grew on plates supplemented with 1 mM mevalonate in the absence of ME. […]

engineered E. coli = experiment: Growth and metabolite analysis of E. coli expressing S. cerevisiae HMG-CoA synthase (pHMGS); format: cell-based, Escherichia coli; settings: accumulation on expression of HMG-CoA synthase from pHMGS
Source text: As a specific example, the accumulation of hydroxymethylglutaryl-CoA (HMG-CoA) is toxic to engineered E. coli.
(§2) FIG. 10. Cultures of E. coli expressing either no heterologous genes (Control), the S. cerevisiae HMG-CoA synthase alone (pHMGS & Empty Vector), or both the S. cerevisiae HMG-CoA synthase and HMG-CoA reductase (pHMGS & pHMGR) on separate expression vectors.
as §2, with “11. Metabolite analysis of cultures” for “10. Cultures”, “and” for “&”, “vectors. E. coli expressing HMG-CoA synthase alone accumulated HMG-CoA.” for “vectors.”

E. coli DH10B = experiment: Growth (optical density) of E. coli harboring mevalonate pathway operon plasmids in media supplemented with exogenous mevalonate; design: growth of strains lacking the ADS gene: dose or concentration left out as unconfirmed
Procedure: For the growth studies, the optical density (OD) of cultures expressing the various recombinant pathways was measured with a microtiter plate reader (SpectraMax, Molecular Devices) from 200 μl cultures of LB broth in 96-well plates incubated at 37° C. with continuous shaking. […] The DYM1 strain was propagated on LB medium containing 0.5 mM methylerithrytol (ME) and transformed DYM1 cells were first allowed to recover on plates supplemented with ME before streaking them on test media.
To investigate the cause of this inhibition, measured the growth of E. coli DH10B from strains harboring either the pMKPMK, pMevB, pMBI or pMBIS plasmid in media supplemented with increasing concentrations of exogenous mevalonate was measured. […] To compare the intracellular prenyl pyrophosphate pools in the same strains, resting cells harboring the different mevalonate operon constructs were fed radiolabeled mevalonate and the labeled metabolites were tracked. […] Simultaneous expression of the amorphadiene synthase consumed the excess FPP pool accumulated in the MBIS host, as shown by a decrease in intracellular FPP.
However, in the absence of the IPP isomerase, FPP synthase and terpene synthase to channel the pathway intermediates to the terpene olefin, toxic levels of intracellular pyrophosphates, especially IPP, may accumulate.

E. coli = experiment: Growth of E. coli overproducing IPP and DMAPP (MK, PMK, MPD, IPP isomerase from pBBR1MCS-2) with various concentrations of mevalonate; format: cell-based, Escherichia coli; settings: all concentrations of mevalonate studied
Source text: as §1
A genomic library from the isoprene-producing bacteria Bacillus subtilis 6051 was expressed from the pTrc99A plasmid in an E. coli strain engineered (genetically modified) to produce elevated levels of IPP and DMAPP. The engineered screening strain expressed nucleic acids encoding mevalonate kinase, phosphomevalonate kinase, mevalonate diphosphate decarboxylase, and IPP/DMAPP isomerase from the pBBR1MCS plasmid, as described in Example 1. Mevalonate was present in the growth medium at a concentration of 10 mM. After several rounds of growth, only plasmids containing genomic fragments with either yhfR or nudF were found in the genomic library.
FIG. 7. […] Triplicate cultures of E. coli expressing the genes encoding for mevalonate kinase, phosphomevalonate kinase, mevalonate diphosphate decarboxylase, and IPP isomerase from the pBBR1MCS-2 plasmid were grown in the presence of various concentrations of mevalonate present in the culture medium. The cells also harbor the pTRC99A expression vector.
FIG. 8. […] Triplicate cultures were set up, which were identical to those depicted in FIG. 7, except that pTRC99A was replaced by pYhfR. The pYhfR plasmid is a pTrc99A backbone that contains the gene yhfR. The yhfR gene was isolated from a plasmid library containing genomic DNA from Bacillus subtilis 6051.
FIG. 9. […]

SMILES: C[C@](O)(CO)[C@H](O)CO [2-C-methyl-D-erythritol]
- growth of DYM1 strains harboring pMevB, pMBI or pMBIS (E. coli strain DYM1; in the presence of 2-C-methyl-D-erythritol (ME)): grew

SMILES: CC(C)(COP(=O)(O)OP(=O)(O)OC[C@H]1O[C@@H](n2cnc3c(N)ncnc32)[C@H](O)[C@@H]1OP(=O)(O)O)[C@@H](O)C(=O)NCCC(=O)NCCSC(=O)C[C@@](C)(O)CC(=O)O [HMG-CoA, hydroxymethylglutaryl-CoA]
- effect of intracellular accumulation on engineered E. coli (engineered E. coli): toxic

SMILES: C=C(C)CCO[P@@](=O)(O)OP(=O)(O)O [IPP, isopentenyl diphosphate]
- effect of intracellular accumulation on cell growth (E. coli DH10B; accumulation in cells with high flux through the mevalonate pathway (pMevB)): toxic and inhibits normal cell growth

SMILES: CC(O)(CCO)CC(=O)O (stereo not shown) [mevalonate]
- growth of cells harboring pYhfR (yhfR) (E. coli; FIG. 8): No growth inhibition
- growth of cells harboring pC9b (nudF) (E. coli; FIG. 9): No growth inhibition
- growth of cells harboring pMKPMK, pMBI or pMBIS (E. coli DH10B; 5 mM mevalonate in the media): did not affect the growth
- growth of cells harboring pMevB (E. coli DH10B; 5 mM mevalonate in the media): inhibited the growth
- growth of cells expressing MBIS (E. coli DH10B; 10 mM mevalonate): growth inhibition
- growth of cells co-expressing the MBIS operon and the amorphadiene synthase gene (E. coli DH10B; all mevalonate concentrations, IPTG-inducible promoters): normal growth rates
- growth of strains lacking the ADS gene (E. coli DH10B; approximately 2 hours after addition of mevalonate and IPTG): Growth inhibition
- growth of control cultures (E. coli DH10B; greater than 10 mM mevalonate, MBIS cultures where amorphadiene synthase was not expressed): Severe growth inhibition
- growth on expression of the operons (E. coli DH10B; media supplemented with 1 mM mevalonate): only a slight decrease in growth
- growth of DYM1 strains harboring pMBI or pMBIS (E. coli strain DYM1; plates supplemented with 1 mM mevalonate in the absence of ME): grew
